From patent publication US20250230193A1, “CYCLIC COMPOUND HAVING SELECTIVE KRAS INHIBITORY EFFECT ON HRAS AND NRAS” (CHUGAI SEIYAKU KABUSHIKI KAISHA, priority 2022, published 2025)

Key:
[1] = biological target: GDP-bound NRAS wild-type protein (Homo sapiens, UniProt P01111); assay: Binding to NRAS by surface plasmon resonance (SPR), Single Cycle Kinetics; conditions: KD ratio NRAS/KRAS, class symbols
[2] = biological target: GDP-bound HRAS wild-type protein (Homo sapiens, UniProt P01112); assay: Binding to HRAS by surface plasmon resonance (SPR), Single Cycle Kinetics; conditions: KD ratio HRAS/KRAS, class symbols
Sequence of GDP-bound HRAS wild-type protein (P01112 whole entry): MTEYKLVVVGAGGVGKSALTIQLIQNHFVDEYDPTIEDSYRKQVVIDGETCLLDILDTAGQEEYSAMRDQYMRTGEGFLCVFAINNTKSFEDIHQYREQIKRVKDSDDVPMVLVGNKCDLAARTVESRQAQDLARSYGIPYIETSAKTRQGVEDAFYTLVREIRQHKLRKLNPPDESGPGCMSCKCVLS

Sequence of GDP-bound NRAS wild-type protein (P01111 whole entry): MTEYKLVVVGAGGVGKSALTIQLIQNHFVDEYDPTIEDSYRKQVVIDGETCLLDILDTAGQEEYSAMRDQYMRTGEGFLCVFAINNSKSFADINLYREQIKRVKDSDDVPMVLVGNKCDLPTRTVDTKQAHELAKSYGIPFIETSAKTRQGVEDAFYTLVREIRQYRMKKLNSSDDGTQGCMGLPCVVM

| Structure (SMILES) | NRAS/KRAS (ratio of KD value with respect to GDP-bound NRAS wild-type protein to KD value with respect to KRAS) [1] | HRAS/KRAS (ratio of KD value with respect to GDP-bound HRAS wild-type protein to KD value with respect to KRAS) [2] |
| --- | --- | --- |
| CCC[C@H]1C(=O)N[C@@H]([C@@H](C)CC)C(=O)N(C)CC(=O)N(C)[C@H]2C/C=C\CCN(C2=O)[C@@H](Cc2ccc(C(F)(F)F)cc2)C(=O)N(C)CC(=O)N[C@@H](CCc2ccc3c(C)cn(C)c3c2)C(=O)N2C[C@H](OCC)C[C@H]2C(=O)NC2(CC(C)(C)C2)C(=O)N(C)[C@@H](C2CCCC2)C(=O)N(C)[C@H](C(=O)N(C)C)CC(=O)N1C [PP2897] | A (a compound having 10 or more and less than 20 is denoted as A) | B (a compound having 3 or more and less than 10 is denoted as B) |
| CCC[C@H]1C(=O)N[C@@H]([C@@H](C)CC)C(=O)N(C)CC(=O)N(C)[C@H]2C/C=C\CCN(C2=O)[C@@H](Cc2ccc(C)cc2)C(=O)N(C)CC(=O)N[C@@H](CCc2cc(Cl)c3c(ccn3C)c2)C(=O)N2C[C@H](OCC)C[C@H]2C(=O)NC2(CC(C)(C)C2)C(=O)N(C)[C@@H](C(CC)CC)C(=O)N(C)[C@H](C(=O)N(C)C)CC(=O)N1C [PP2898] | A (a compound having 10 or more and less than 20 is denoted as A) | A (a compound having 10 or more and less than 20 is denoted as A) |
| CCC[C@H]1C(=O)N[C@@H]([C@@H](C)CC)C(=O)N(C)CC(=O)N(C)[C@H]2C/C=C\CCN(C2=O)[C@@H](Cc2ccc(C)cc2)C(=O)N(C)CC(=O)N[C@@H](CCc2ccc3c(C)cn(C)c3c2)C(=O)N2C[C@H](OCC)C[C@H]2C(=O)NC2(CC(C)(C)C2)C(=O)N(C)[C@@H](C2CCCC2)C(=O)N(C)[C@H](C(=O)N(C)C)CC(=O)N1C [PP2899] | A (a compound having 10 or more and less than 20 is denoted as A) | B (a compound having 3 or more and less than 10 is denoted as B) |
| CCC[C@H]1C(=O)N[C@@H]([C@@H](C)CC)C(=O)N(C)CC(=O)N(C)[C@H]2C/C=C\CCN(C2=O)[C@@H](Cc2ccc(C(F)(F)F)cc2)C(=O)N(C)CC(=O)N[C@@H](CCc2ccc3sc(C)c(C)c3c2)C(=O)N2C[C@H](OCC)C[C@H]2C(=O)NC2(CC(C)(C)C2)C(=O)N(C)[C@@H](C(CC)CC)C(=O)N(C)[C@H](C(=O)N(C)C)CC(=O)N1C [PP2900] | AA (a compound having 20 or more is denoted as AA) | A (a compound having 10 or more and less than 20 is denoted as A) |
| CCC[C@H]1C(=O)N[C@@H]([C@@H](C)CC)C(=O)N(C)CC(=O)N(C)[C@H]2C/C=C\CCN(C2=O)[C@@H](Cc2ccc(C(F)(F)F)cc2)C(=O)N(C)CC(=O)N[C@@H](CCc2ccc3ccn(C)c3c2)C(=O)N2C[C@H](OCC)C[C@H]2C(=O)NC2(CC(C)(C)C2)C(=O)N(C)[C@@H](C2CCCC2)C(=O)N(C)[C@H](C(=O)N(C)C)CC(=O)N1C [PP2901] | A (a compound having 10 or more and less than 20 is denoted as A) | A (a compound having 10 or more and less than 20 is denoted as A) |
| CCC[C@H]1C(=O)N[C@@H]([C@@H](C)CC)C(=O)N(C)CC(=O)N(C)[C@H]2C/C=C\CCN(C2=O)[C@@H](Cc2ccc(C)cc2)C(=O)N(C)CC(=O)N[C@@H](CCc2ccc3sc(C)c(C)c3c2)C(=O)N2C[C@H](OCC)C[C@H]2C(=O)NC2(CC(C)(C)C2)C(=O)N(C)[C@@H](C(CC)CC)C(=O)N(C)[C@H](C(=O)N(C)C)CC(=O)N1C [PP2902] | AA (a compound having 20 or more is denoted as AA) | A (a compound having 10 or more and less than 20 is denoted as A) |
